Where two headings read alike, the source gives them in different places. Bounds are passed on as bounds.

In one assay the target is T1, HDAC1 (Homo sapiens, UniProt Q13547).
T1 construct: purchased Enzolifesciences BML-AK511
The experiment in a line: HDAC enzyme activity inhibition (in vitro), HDAC1 Fluorimetric Drug Discovery Assay Kit. It is filed as biochemical. In outline:
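Fluorimetric read-out (Ex 390, Em 460) after a 60 min 37° C enzyme reaction and 30 min 37° C developer step. Tested levels: 0.1-1000 nM (0.1, 1, 10, 100, 1000) on recombinant human HDAC6; 100, 1000 and 10000 nM on HDAC1 kit enzyme.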

Another assay addresses T2, HDAC6 human recombinant (Homo sapiens, UniProt Q9UBN7).
T2 construct: purchased Calbiochem 382180
T2 sequence (Q9UBN7 1-1215): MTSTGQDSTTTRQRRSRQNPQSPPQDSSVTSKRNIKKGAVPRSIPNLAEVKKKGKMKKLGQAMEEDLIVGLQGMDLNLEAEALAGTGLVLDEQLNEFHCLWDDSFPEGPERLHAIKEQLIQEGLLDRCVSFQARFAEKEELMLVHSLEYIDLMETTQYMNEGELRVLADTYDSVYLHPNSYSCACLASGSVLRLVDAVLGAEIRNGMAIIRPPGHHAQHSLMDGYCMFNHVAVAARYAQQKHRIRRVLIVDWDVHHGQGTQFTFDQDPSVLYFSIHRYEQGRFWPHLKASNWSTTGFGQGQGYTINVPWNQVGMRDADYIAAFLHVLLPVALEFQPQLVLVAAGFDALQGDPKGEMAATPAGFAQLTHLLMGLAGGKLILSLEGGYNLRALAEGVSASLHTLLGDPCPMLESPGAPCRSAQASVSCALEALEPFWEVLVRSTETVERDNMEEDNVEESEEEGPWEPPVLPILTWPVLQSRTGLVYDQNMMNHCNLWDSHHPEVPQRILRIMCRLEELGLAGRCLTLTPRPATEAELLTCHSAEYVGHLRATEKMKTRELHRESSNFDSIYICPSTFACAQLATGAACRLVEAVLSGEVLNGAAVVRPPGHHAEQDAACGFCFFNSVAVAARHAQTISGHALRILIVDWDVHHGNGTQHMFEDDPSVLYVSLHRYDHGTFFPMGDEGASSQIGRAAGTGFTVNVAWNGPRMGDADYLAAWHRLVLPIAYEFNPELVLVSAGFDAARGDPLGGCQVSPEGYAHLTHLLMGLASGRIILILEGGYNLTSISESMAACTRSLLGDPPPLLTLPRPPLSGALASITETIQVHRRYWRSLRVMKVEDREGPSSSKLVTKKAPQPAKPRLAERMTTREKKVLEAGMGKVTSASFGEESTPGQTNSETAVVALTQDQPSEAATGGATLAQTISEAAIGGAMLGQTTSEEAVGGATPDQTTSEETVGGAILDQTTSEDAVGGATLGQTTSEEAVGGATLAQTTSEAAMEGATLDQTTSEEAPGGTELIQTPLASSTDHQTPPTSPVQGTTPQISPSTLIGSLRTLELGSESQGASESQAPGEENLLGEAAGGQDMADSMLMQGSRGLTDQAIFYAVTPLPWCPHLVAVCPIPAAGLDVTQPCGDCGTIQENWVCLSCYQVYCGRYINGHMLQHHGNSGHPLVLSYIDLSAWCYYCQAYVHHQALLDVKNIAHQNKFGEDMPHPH
The experiment in a line: HDAC enzyme activity inhibition (in vitro), HDAC6 assay. It is filed as biochemical. The gist of the method: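 Fluorescence (Ex 390, Em 460) read after a 37° C, 60 min enzyme reaction and a further 30 min developer step at 37° C. Uses recombinant human HDAC6; HDAC1 arm dosed at 100, 1000, 10000 nM.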

Where [1] appears, read: samples at 100, 1000 and 10000 nM, 37° C. 60 minutes, fluorescence Ex 390, Em 460, read-out: HDAC1 IC50.
The mark [2] stands for this setting: samples at 0.1, 1, 10, 100 and 1000 nM, 37° C. 60 minutes, fluorescence Ex 390, Em 460, read-out: HDAC6 IC50.

T1 sequence (Q13547 whole entry): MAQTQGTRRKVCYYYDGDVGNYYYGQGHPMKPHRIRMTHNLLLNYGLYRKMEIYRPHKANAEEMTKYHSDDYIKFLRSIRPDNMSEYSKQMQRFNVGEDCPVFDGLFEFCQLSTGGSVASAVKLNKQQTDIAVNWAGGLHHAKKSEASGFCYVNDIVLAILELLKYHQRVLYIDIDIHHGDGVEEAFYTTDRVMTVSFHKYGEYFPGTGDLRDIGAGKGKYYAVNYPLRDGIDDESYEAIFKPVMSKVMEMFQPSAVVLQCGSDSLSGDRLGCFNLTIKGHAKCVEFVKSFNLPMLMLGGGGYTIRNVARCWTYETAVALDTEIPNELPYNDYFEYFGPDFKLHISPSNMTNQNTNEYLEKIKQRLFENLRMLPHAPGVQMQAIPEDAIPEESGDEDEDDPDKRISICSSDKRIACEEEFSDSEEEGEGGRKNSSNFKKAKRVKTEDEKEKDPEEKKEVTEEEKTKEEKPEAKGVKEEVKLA

Regarding `CC(C)N1CCC(n2c(=O)n(Cc3ccc(-c4nnc(C(F)F)o4)cn3)c3cc(F)ccc32)CC1` [Compound 51, 3-((5-(5-(difluoromethyl)-1,3,4-oxadiazole-2-yl)pyridine-2-yl)methyl)-5-fluoro-1-(1-isopropylpiperidine-4-yl)-1,3-dihydro-2H-benzo[d]imidazole-2-one], the values for the IC50 on HDAC1 (setting [1]) and at HDAC6 human recombinant (setting [2]) were greater than 10 µM and 32 nM, respectively.
With `O=c1n(Cc2ccc(-c3nnc(C(F)F)o3)cn2)c2cc(F)ccc2n1C1CCN(C2COC2)CC1` [Compound 53, 3-((5-(5-(difluoromethyl)-1,3,4-oxadiazole-2-yl)pyridine-2-yl)methyl)-5-fluoro-1-(1-(oxetan-3-yl)piperidine-4-yl)-1,3-dihydro-2H-benzo[d]imidazole-2-one], the values for the concentration for half-maximal inhibition (IC50) on HDAC1 (setting [1]) and at HDAC6 human recombinant (setting [2]) were greater than 10 µM and 37 nM, respectively.
Take `O=c1n(Cc2ccc(-c3nnc(C(F)F)o3)cn2)c2cc(F)ccc2n1C1CCN(C2CCCCC2)CC1` [Compound 54, 1-(1-cyclohexylpiperidine-4-yl)-3-((5-(5-(difluoromethyl)-1,3,4-oxadiazole-2-yl)pyridine-2-yl)methyl)-5-fluoro-1,3-dihydro-2H-benzo[d]imidazole-2-one]: the results for the IC50 on HDAC1 (setting [1]) and at HDAC6 human recombinant (setting [2]) were greater than 10 µM and 39 nM, respectively.
On to `O=c1n(Cc2ccc(-c3nnc(C(F)F)o3)cn2)c2cc(F)ccc2n1C1CCN(C2CCOCC2)CC1` [Compound 55, 3-((5-(5-(difluoromethyl)-1,3,4-oxadiazole-2-yl)pyridine-2-yl)methyl)-5-fluoro-1-(1-(tetrahydro-2H-pyran-4-yl)piperidine-4-yl)-1,3-dihydro-2H-benzo[d]imidazole-2-one], for which the half-maximal inhibitory concentration (IC50) – broadly, the concentration at which inhibition is half-maximal – is greater than 10 µM on HDAC1 (setting [1]) and 39 nM at HDAC6 human recombinant (setting [2]).
For the compound `COCC(C)N1CCC(n2c(=O)n(Cc3ccc(-c4nnc(C(F)F)o4)cn3)c3cc(F)ccc32)CC1` (centres unmarked) [Compound 56, 3-((5-(5-(difluoromethyl)-1,3,4-oxadiazole-2-yl)pyridine-2-yl)methyl)-5-fluoro-1-(1-(1-methoxypropane-2-yl)piperidine-4-yl)-1,3-dihydro-2H-benzo[d]imidazole-2-one], the IC50 was greater than 10 µM at HDAC1 (setting [1]) and 34 nM on HDAC6 human recombinant (setting [2]).
On to `O=c1n(Cc2ccc(-c3nnc(C(F)F)o3)cn2)c2cc(F)ccc2n1C1CCN(C2CCSCC2)CC1` [Compound 57, 3-((5-(5-(difluoromethyl)-1,3,4-oxadiazole-2-yl)pyridine-2-yl)methyl)-5-fluoro-1-(1-(tetrahydro-2H-thiopyran-4-yl)piperidine-4-yl)-1,3-dihydro-2H-benzo[d]imidazole-2-one], for which the results for the IC50 at HDAC1 (setting [1]) and at HDAC6 human recombinant (setting [2]) were greater than 10 µM and 36 nM, respectively.
For the compound `O=c1n(Cc2ccc(-c3nnc(C(F)F)o3)cn2)c2cc(F)ccc2n1C1CCN(C2CCC3(CC2)OCCO3)CC1` [Compound 58, 1-(1-(1,4-dioxaspiro[4.5]decane-8-yl)piperidine-4-yl)-3-((5-(5-(difluoromethyl)-1,3,4-oxadiazole-2-yl)pyridine-2-yl)methyl)-5-fluoro-1,3-dihydro-2H-benzo[d]imidazole-2-one], the IC50 at HDAC1 (setting [1]) is greater than 10 µM; at HDAC6 human recombinant (setting [2]), 28 nM.
Turning to `CC(=O)N1CCC(N2CCC(n3c(=O)n(Cc4ccc(-c5nnc(C(F)F)o5)cn4)c4cc(F)ccc43)CC2)CC1` [Compound 59, 1-(1′-acetyl-[1,4′-bipiperidine]-4-yl)-3-((5-(5-(difluoromethyl)-1,3,4-oxadiazole-2-yl)pyridine-2-yl)methyl)-5-fluoro-1,3-dihydro-2H-benzo[d]imidazole-2-one], the 50% inhibitory concentration (IC50) was greater than 10 µM on HDAC1 and 38 nM on HDAC6 human recombinant.
For `CC(=O)N1CCC(n2c(=O)n(Cc3ccc(-c4nnc(C(F)F)o4)cn3)c3cc(F)ccc32)CC1` [Compound 60, 1-(1-acetylpiperidine-4-yl)-3-((5-(5-(difluoromethyl)-1,3,4-oxadiazole-2-yl)pyridine-2-yl)methyl)-5-fluoro-1,3-dihydro-2H-benzo[d]imidazole-2-one], the 50% inhibitory concentration (IC50) at HDAC1 (setting [1]) is greater than 10 µM; at HDAC6 human recombinant (setting [2]), 31 nM.
For the compound `O=C(N1CCOCC1)N1CCC(n2c(=O)n(Cc3ccc(-c4nnc(C(F)F)o4)cn3)c3cc(F)ccc32)CC1` [Compound 61, 3-((5-(5-(difluoromethyl)-1,3,4-oxadiazole-2-yl)pyridine-2-yl)methyl)-5-fluoro-1-(1-(morpholine-4-carbonyl)piperidine-4-yl)-1,3-dihydro-2H-benzo[d]imidazole-2-one], the 50% inhibitory concentration (IC50) on HDAC1 (setting [1]) is greater than 10 µM; at HDAC6 human recombinant (setting [2]) it was 32 nM.
With `O=C(c1ccc(C(F)(F)F)cc1)N1CCC(n2c(=O)n(Cc3ccc(-c4nnc(C(F)F)o4)cn3)c3cc(F)ccc32)CC1` [Compound 62, 3-((5-(5-(difluoromethyl)-1,3,4-oxadiazole-2-yl)pyridine-2-yl)methyl)-5-fluoro-1-(1-(4-(trifluoromethyl)benzoyl)piperidine-4-yl)-1,3-dihydro-2H-benzo[d]imidazole-2-one], the figures for the IC50 on HDAC1 (setting [1]) and on HDAC6 human recombinant (setting [2]) were greater than 10 µM and 259 nM, respectively.
The like results for `O=C(c1ccncc1)N1CCC(n2c(=O)n(Cc3ccc(-c4nnc(C(F)F)o4)cn3)c3cc(F)ccc32)CC1` [Compound 63, 3-((5-(5-(difluoromethyl)-1,3,4-oxadiazole-2-yl)pyridine-2-yl)methyl)-5-fluoro-1-(1-isonicotinoylpiperidine-4-yl)-1,3-dihydro-2H-benzo[d]imidazole-2-one] were, in that order, greater than 10 µM and 57 nM.
Turning to `O=C(c1cncnc1)N1CCC(n2c(=O)n(Cc3ccc(-c4nnc(C(F)F)o4)cn3)c3cc(F)ccc32)CC1` [Compound 64, 3-((5-(5-(difluoromethyl)-1,3,4-oxadiazole-2-yl)pyridine-2-yl)methyl)-5-fluoro-1-(1-(pyrimidine-5-carbonyl)piperidine-4-yl)-1,3-dihydro-2H-benzo[d]imidazole-2-one], the values for the half-inhibitory concentration (IC50) on HDAC1 (setting [1]) and on HDAC6 human recombinant (setting [2]) were greater than 10 µM and 44 nM, respectively.
In the case of `Cc1oncc1C(=O)N1CCC(n2c(=O)n(Cc3ccc(-c4nnc(C(F)F)o4)cn3)c3cc(F)ccc32)CC1` [Compound 65, 3-((5-(5-(difluoromethyl)-1,3,4-oxadiazole-2-yl)pyridine-2-yl)methyl)-5-fluoro-1-(1-(5-methylisooxazole-4-carbonyl)piperidine-4-yl)-1,3-dihydro-2H-benzo[d]imidazole-2-one], the IC50 at HDAC1 (setting [1]) is greater than 10 µM; at HDAC6 human recombinant (setting [2]), 84 nM.
Consider `Cc1ccc(C(=O)N2CCC(n3c(=O)n(Cc4ccc(-c5nnc(C(F)F)o5)cn4)c4cc(F)ccc43)CC2)o1` [Compound 66, 3-((5-(5-(difluoromethyl)-1,3,4-oxadiazole-2-yl)pyridine-2-yl)methyl)-5-fluoro-1-(1-(5-methylfuran-2-carbonyl)piperidine-4-yl)-1,3-dihydro-2H-benzo[d]imidazole-2-one], for which the IC50 on HDAC1 (setting [1]) is greater than 10 µM; at HDAC6 human recombinant (setting [2]), 72 nM.
With `COCCC(=O)N1CCC(n2c(=O)n(Cc3ccc(-c4nnc(C(F)F)o4)cn3)c3cc(F)ccc32)CC1` [Compound 67, 3-((5-(5-(difluoromethyl)-1,3,4-oxadiazole-2-yl)pyridine-2-yl)methyl)-5-fluoro-1-(1-(3-methoxypropanoyl)piperidine-4-yl)-1,3-dihydro-2H-benzo[d]imidazole-2-one], the IC50 is greater than 10 µM on HDAC1 (setting [1]) and 41 nM on HDAC6 human recombinant (setting [2]).

For the origin of these results see patent US20230092890A1, “1, 3, 4-Oxadiazole derivative compounds as histone deacetylase 6 inhibitor, and the pharmaceutical composition comprising the same” (Chong Kun Dang Pharmaceutical Corp., priority 2019, published 2023).
